These results are taken from the supplement of paper PMC10949913.

What all share (assay): area under concentration-response curve (viability) (AUC (a.u.)); higher = less active
Conditions in all cases: 48 h

In test [1] the test system is CU-ACC2. The gist of the method: (§1)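 Cells from three adrenocortical carcinoma lines were seeded at 500–1,000 cells/well in 5 µL medium in 1,536-well plates. Each library compound was added as 23 nL at 11 concentrations, and after 48 h CellTiter-Glo was added for 15 minutes at room temperature before reading luminescence. Plate-wise normalisation to vehicle and empty-well controls preceded curve fitting. AC50 and area under the curve were calculated only for inhibitory or non-responding curve classes.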

Test [2] deals with NCI-H295R. The gist of the method:
as §1

The subject of test [3] is CU-ACC1. The gist of the method: as §1

Consider `CC(=O)OC[C@@H]1O[C@H]([C@H](OC(C)=O)[C@@H]1OC(C)=O)N2\C=C/C(=O)NC2=O`, for which the figures for the “area under concentration-response curve” value in test [1], in test [2] and in test [3] were 521, 459 and 497, respectively.

On to `NCC/1=C/NC(=S)N1[C@H]2CCC3=C(F)C=C(F)C=C3C2`, for which the “area under concentration-response curve” value in test [1] stood at 547; in test [2], 550; in test [3], 495.

With `COC(=O)Nc1nc2cc(C(=O)c3cccs3)ccc2[nH]1`, the “area under concentration-response curve” value in test [1] stood at 516; in test [2], 382; in test [3] it was 496.

Consider `O=C(Nc1c(Cl)cncc1Cl)c1ccc(OC(F)F)c(OCC2CC2)c1`, for which the “area under concentration-response curve” value in test [1] was 556; in test [2], 523; in test [3] it was 464.

Take `NC/1=N/C(=O)C/2=C(/NCC3CN(CN23)C4=CC=C(C=C4)C(=O)N[C@@H](CCC(O)=O)C(O)=O)N1` (stereo not given in full): the figures for the “area under concentration-response curve” value in test [1], in test [2] and in test [3] were 565, 526 and 475, respectively.

On to `COC(=O)N(C)c1c(N)nc(-c2nn(Cc3ccccc3F)c3ncccc23)nc1N`, for which the entries for the “area under concentration-response curve” value in test [1], in test [2] and in test [3] were 586, 488 and 488, respectively.

Regarding `N[S+](=O)([O-])c1cc2c(cc1Cl)NCN[S+]2(=O)[O-]`, the results for the “area under concentration-response curve” value in test [1], in test [2] and in test [3] were 563, 430 and 480, respectively.

`CCCN(CCC)C(=O)C(CCC(=O)O)NC(=O)c1ccccc1` (stereo not given): the “area under concentration-response curve” value was determined as 570 in test [1], 524 in test [2] and 504 in test [3].

In the case of `CCCCCCCCCC(=O)N[C@@H](Cc1c[nH]c2ccccc12)C(=O)N[C@H](CC(N)=O)C(=O)N[C@@H](CC(=O)O)C(=O)N[C@@H]1C(=O)NCC(=O)N[C@@H](CCCN)C(=O)N[C@@H](CC(=O)O)C(=O)N[C@H](C)C(=O)N[C@@H](CC(=O)O)C(=O)NCC(=O)N[C@H](CO)C(=O)N[C@@H]([C@@H](C)CC(=O)O)C(=O)N[C@@H](CC(=O)c2ccccc2N)C(=O)O[C@@H]1C`, the “area under concentration-response curve” value was 606 in test [1], 496 in test [2] and 485 in test [3].

Regarding `O=C1NC(=O)/C(=C/c2ccc3nccnc3c2)S1`, the figures for the “area under concentration-response curve” value in test [1], in test [2] and in test [3] were 443, 496 and 452, respectively.

Turning to `CC(C)OC(=O)/C1=C/N(CC(C)(C)C2=C1[NH]C3=CC=CC=C23)C(=O)C4=CC=C(F)C(=C4)F`, the “area under concentration-response curve” value in test [1] came out at 555; in test [2], 529; in test [3], 454.

Turning to `CN[C@@H]1[C@H](O[C@H]2[C@H](O[C@@H]3[C@@H](O)[C@H](O)[C@@H](NC(=N)N)[C@H](O)[C@H]3NC(=N)N)O[C@@H](C)[C@]2(O)C=O)O[C@@H](CO)[C@H](O)[C@H]1O`, the “area under concentration-response curve” value in test [1] amounted to 606; in test [2] it was 553; in test [3], 516.

Turning to `Cc1cn[nH]c1`, the results for the “area under concentration-response curve” value in test [1], in test [2] and in test [3] were 575, 524 and 492, respectively.

In the case of `CCC(C)CNCC(=O)N1CCc2sccc2C1c1cccc(C)n1` (stereo not given), the figures for the “area under concentration-response curve” value in test [1], in test [2] and in test [3] were 622, 571 and 531, respectively.

Consider `C[C@@H]1CC2=C(C=C3OCOC3=C2)C(=N\N1C(C)=O)/C4=CC=C(N)C=C4`, for which the “area under concentration-response curve” value in test [1] stood at 398; in test [2] it was 406; in test [3], 394.
